Consider 34 compounds from ChEMBL document CHEMBL5247625, “Discovery and characterization of novel potent BCR-ABL degraders by conjugating allosteric inhibitor” (Eur J Med Chem, 2022).

Some results are limits rather than exact numbers.

One assay concerns K562. Briefly: cells. As to conditions: Homo sapiens, K562, 48 h.
Assay [1] addresses T1, Protein cereblon/Tyrosine-protein kinase ABL1/Breakpoint cluster region protein (Homo sapiens, UniProt P00519+P11274+Q96SW2). The experiment in a line: Protac activity at CRBN/BCR-ABL in human K562 cells assessed as increase in BCR-ABL degradation at 50 nM by Western blotting analysis. Type of assay: cell-based.
The target in assay [2] is T1, Protein cereblon/Tyrosine-protein kinase ABL1/Breakpoint cluster region protein. Briefly: Protac activity at CRBN/BCR-ABL in human K562 cells assessed as increase in BCR-ABL degradation at 5 nM by Western blotting analysis. It is filed as cell-based.
Assay [3] shares this target. The experiment in a line: Protac activity at CRBN/BCR-ABL in human K562 cells assessed as increase in BCR-ABL degradation at 100 nM by Western blotting analysis. It is filed as cell-based. For orientation: A western blot detects proteins with antibodies after separation by electrophoresis.

In general, IC50 refers to the point on the concentration scale where inhibition reaches its midpoint. A high value points to weaker potency in that assay.

T1 sequence (P00519 whole entry, looked up): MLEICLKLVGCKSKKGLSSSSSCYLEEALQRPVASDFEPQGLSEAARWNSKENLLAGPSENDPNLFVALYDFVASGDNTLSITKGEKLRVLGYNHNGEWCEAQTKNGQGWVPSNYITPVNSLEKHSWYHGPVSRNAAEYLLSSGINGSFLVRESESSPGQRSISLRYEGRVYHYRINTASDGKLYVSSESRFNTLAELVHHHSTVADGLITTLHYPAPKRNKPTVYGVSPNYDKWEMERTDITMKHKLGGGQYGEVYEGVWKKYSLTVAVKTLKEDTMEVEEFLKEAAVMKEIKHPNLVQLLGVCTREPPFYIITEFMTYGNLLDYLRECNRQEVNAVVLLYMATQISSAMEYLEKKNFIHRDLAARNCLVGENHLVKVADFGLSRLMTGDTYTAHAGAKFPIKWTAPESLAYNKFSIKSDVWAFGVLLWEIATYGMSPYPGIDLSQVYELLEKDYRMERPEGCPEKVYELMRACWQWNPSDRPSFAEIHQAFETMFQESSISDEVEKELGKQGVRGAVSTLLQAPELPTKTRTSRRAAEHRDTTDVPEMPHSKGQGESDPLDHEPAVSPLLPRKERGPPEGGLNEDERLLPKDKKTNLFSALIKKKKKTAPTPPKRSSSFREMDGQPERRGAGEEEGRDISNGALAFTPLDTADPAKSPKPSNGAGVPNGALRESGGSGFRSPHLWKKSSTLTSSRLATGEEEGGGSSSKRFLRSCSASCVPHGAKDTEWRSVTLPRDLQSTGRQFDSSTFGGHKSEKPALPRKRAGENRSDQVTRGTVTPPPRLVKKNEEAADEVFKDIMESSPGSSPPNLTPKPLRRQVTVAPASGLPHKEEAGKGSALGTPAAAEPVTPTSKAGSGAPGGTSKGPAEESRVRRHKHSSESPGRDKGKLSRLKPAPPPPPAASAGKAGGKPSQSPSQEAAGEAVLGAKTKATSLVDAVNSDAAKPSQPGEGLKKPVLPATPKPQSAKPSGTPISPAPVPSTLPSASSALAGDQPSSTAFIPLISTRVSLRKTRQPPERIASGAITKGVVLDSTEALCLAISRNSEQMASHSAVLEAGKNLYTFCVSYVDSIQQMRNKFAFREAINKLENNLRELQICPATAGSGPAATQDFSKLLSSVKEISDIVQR
T1 sequence (P11274 whole entry, looked up): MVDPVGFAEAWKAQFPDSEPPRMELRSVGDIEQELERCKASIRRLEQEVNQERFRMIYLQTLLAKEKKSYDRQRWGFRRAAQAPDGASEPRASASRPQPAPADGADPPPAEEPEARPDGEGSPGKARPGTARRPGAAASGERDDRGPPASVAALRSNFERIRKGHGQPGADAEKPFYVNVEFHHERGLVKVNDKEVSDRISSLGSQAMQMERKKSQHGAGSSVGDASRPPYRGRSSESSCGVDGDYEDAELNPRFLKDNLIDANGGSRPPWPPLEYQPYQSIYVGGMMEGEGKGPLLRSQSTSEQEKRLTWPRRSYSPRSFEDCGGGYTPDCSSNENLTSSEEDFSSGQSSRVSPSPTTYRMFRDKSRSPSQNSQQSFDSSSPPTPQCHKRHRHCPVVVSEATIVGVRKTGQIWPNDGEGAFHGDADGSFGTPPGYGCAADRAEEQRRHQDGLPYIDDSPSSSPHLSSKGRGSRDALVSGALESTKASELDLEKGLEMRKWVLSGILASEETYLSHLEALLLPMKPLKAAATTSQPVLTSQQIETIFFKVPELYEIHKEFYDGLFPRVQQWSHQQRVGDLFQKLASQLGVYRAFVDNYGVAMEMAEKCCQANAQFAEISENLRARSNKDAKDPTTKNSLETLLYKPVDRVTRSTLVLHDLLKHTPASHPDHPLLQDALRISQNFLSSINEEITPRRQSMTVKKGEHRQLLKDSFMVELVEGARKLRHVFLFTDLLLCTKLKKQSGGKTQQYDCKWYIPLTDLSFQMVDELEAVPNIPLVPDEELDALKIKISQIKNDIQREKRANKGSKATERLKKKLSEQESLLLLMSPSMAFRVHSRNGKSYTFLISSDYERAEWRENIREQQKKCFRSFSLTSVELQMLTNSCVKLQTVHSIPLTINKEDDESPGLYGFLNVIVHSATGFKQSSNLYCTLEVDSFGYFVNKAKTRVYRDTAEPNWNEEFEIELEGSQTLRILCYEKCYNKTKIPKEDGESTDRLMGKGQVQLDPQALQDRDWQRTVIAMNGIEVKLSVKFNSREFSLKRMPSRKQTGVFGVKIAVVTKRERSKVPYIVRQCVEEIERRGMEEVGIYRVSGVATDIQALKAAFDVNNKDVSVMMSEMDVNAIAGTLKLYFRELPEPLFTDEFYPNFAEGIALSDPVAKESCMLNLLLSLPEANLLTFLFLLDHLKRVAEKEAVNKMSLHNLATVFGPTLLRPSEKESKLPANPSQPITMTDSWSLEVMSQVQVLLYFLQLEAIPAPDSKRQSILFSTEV
T1 sequence (Q96SW2 whole entry, looked up): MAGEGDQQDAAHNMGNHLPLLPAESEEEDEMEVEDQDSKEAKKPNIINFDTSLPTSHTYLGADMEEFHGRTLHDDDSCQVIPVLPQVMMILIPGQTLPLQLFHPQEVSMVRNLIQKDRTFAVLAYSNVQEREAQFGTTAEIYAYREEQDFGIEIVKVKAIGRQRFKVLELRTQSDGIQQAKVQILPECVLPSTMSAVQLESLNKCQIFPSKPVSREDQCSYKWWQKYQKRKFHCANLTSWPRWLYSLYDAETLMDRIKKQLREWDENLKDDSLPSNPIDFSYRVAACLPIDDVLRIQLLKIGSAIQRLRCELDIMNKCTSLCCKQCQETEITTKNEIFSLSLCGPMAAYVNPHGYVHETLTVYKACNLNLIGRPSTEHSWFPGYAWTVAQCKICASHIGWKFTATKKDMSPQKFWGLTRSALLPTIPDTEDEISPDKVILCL
Description for K562: Antiproliferative activity against human K562 cells assessed as inhibition of cell growth incubated for 2 days by CCK8 assay

`O=C1CCC(N2Cc3c(NCCCC(=O)N4CCN(c5ncc(C(=O)Nc6ccc(OC(F)(F)Cl)cc6)cc5-c5ccn[nH]5)CC4)cccc3C2=O)C(=O)N1` (centres undefined) displayed an IC50 in the assay on K562 of 666 nM. Also, the Activity in assay [1] was -2.33%.
The like results for `O=C1CCC(N2C(=O)c3cccc(NCCOCCOCCC(=O)N4CCN(c5ncc(C(=O)Nc6ccc(OC(F)(F)Cl)cc6)cc5-c5ccn[nH]5)CC4)c3C2=O)C(=O)N1` (centres undefined) were, in that order, 1100 nM and -1.5%.
For `O=C1CCC(N2C(=O)c3cccc(C#CCCCC(=O)N4CCN(c5ncc(C(=O)Nc6ccc(OC(F)(F)Cl)cc6)cc5-c5ccn[nH]5)CC4)c3C2=O)C(=O)N1` (centres undefined), in that order: 278 nM and 9.65%.
As to `Nc1cccc2c1CN(C1CCC(=O)NC1=O)C2=O` (centres undefined) [LENALIDOMIDE], the IC50 with K562 is > 10000 nM.
As to `O=C1CCC(N2Cc3c(OCCCCCCN4CCN(C5CCN(c6ncc(C(=O)Nc7ccc(OC(F)(F)Cl)cc7)cc6-c6ccn[nH]6)CC5)CC4)cccc3C2=O)C(=O)N1` (centres undefined), the results for the Activity in assay [2] and in assay [3] were 28.8% and 67.9%, respectively. For the same compound, in the assay on K562, the 50% inhibitory concentration (IC50) came out at 66 nM.
`O=C1CCC(N2C(=O)c3cccc(SCCCC(=O)N4CCN(c5ncc(C(=O)Nc6ccc(OC(F)(F)Cl)cc6)cc5-c5ccn[nH]5)CC4)c3C2=O)C(=O)N1` (centres undefined) gave a 50% inhibitory concentration (IC50) with K562 of 528 nM. Further, the Activity in assay [1] came out at 9.57%.
For `O=C1CCC(N2C(=O)c3cccc(NCCCCC(=O)N4CCN(c5ncc(C(=O)Nc6ccc(OC(F)(F)Cl)cc6)cc5-c5ccn[nH]5)CC4)c3C2=O)C(=O)N1` (centres undefined), in that order: 172 nM and 1.94%.
As for `O=C1CCC(N2Cc3c(SCCCCCCCN4CCN(C5CCN(c6ncc(C(=O)Nc7ccc(OC(F)(F)Cl)cc7)cc6-c6ccn[nH]6)CC5)CC4)cccc3C2=O)C(=O)N1` (centres undefined), the Activity in assay [2] stood at 21.9%; in assay [3] it was 64.4%. In addition, the midpoint of inhibition with K562, the IC50, lay at 47 nM.
The like results for `O=C1CCC(N2Cc3c(SCCCCCNC4CCN(c5ncc(C(=O)Nc6ccc(OC(F)(F)Cl)cc6)cc5-c5ccn[nH]5)CC4)cccc3C2=O)C(=O)N1` (centres undefined) were, in that order, -3.96%, 29.7% and 978 nM.
For `O=C1CCC(N2Cc3c(SCCCCN4CCN(c5ncc(C(=O)Nc6ccc(OC(F)(F)Cl)cc6)cc5-c5ccn[nH]5)CC4)cccc3C2=O)C(=O)N1` (centres undefined), in that order: 40.8%, 87.8% and 30.3 nM.
The like results for `O=C1CCC(N2Cc3c(SCCCN4CCN(C5CCN(c6ncc(C(=O)Nc7ccc(OC(F)(F)Cl)cc7)cc6-c6ccn[nH]6)CC5)CC4)cccc3C2=O)C(=O)N1` (centres undefined) were, in that order, 55.5%, 49.6% and 48.5 nM.
Consider `O=C1CCC(N2C(=O)c3cccc(NCCOCCOCCOCCOCCC(=O)N4CCN(c5ncc(C(=O)Nc6ccc(OC(F)(F)Cl)cc6)cc5-c5ccn[nH]5)CC4)c3C2=O)C(=O)N1` (centres undefined), for which, in the assay on K562, the half-inhibitory concentration (IC50) turned out to be 886 nM. The Activity in assay [1] is 4.94%.
For `O=C1CCC(N2C(=O)c3cccc(NCCCCCC(=O)N4CCN(c5ncc(C(=O)Nc6ccc(OC(F)(F)Cl)cc6)cc5-c5ccn[nH]5)CC4)c3C2=O)C(=O)N1` (centres undefined), in that order: 186 nM and 1.67%.
The like results for `O=C1CCC(N2Cc3c(SCCOCC(=O)N4CCN(c5ncc(C(=O)Nc6ccc(OC(F)(F)Cl)cc6)cc5-c5ccn[nH]5)CC4)cccc3C2=O)C(=O)N1` (centres undefined) were, in that order, 154 nM and 10.2%.
`O=C1CCC(N2Cc3c(SCCCCN4CCN(C5CCN(c6ncc(C(=O)Nc7ccc(OC(F)(F)Cl)cc7)cc6-c6ccn[nH]6)CC5)CC4)cccc3C2=O)C(=O)N1` (centres undefined): the Activity in assay [2] was found to be 38.9%; in assay [3] it was 86.1%. In the assay on K562, this compound yielded a half-maximal inhibitory concentration (IC50) of 34.7 nM.
With `O=C1CCC(N2Cc3c(C#CCCCCN4CCN(c5ncc(C(=O)Nc6ccc(OC(F)(F)Cl)cc6)cc5-c5ccn[nH]5)CC4)cccc3C2=O)C(=O)N1` (centres undefined), the Activity is 32.8% in assay [2] and 89.1% in assay [3]. The same compound displayed an IC50 in the assay with K562 of 40.9 nM.
`O=C1CCC(N2C(=O)c3cccc(NCCCC(=O)N4CCN(c5ncc(C(=O)Nc6ccc(OC(F)(F)Cl)cc6)cc5-c5ccn[nH]5)CC4)c3C2=O)C(=O)N1` (centres undefined) had an IC50 in the assay with K562 of 130 nM. Further, the Activity in assay [1] came to 9.05%.
On to `O=C1CCC(N2Cc3c(SCCCCCNc4ncc(C(=O)Nc5ccc(OC(F)(F)Cl)cc5)cc4-c4ccn[nH]4)cccc3C2=O)C(=O)N1` (centres undefined), for which the Activity in assay [2] came to 6.85%; in assay [3] it was 29.6%. The 50% inhibitory concentration (IC50) with K562 was determined as 558 nM.
The like results for `O=C1CCC(N2Cc3c(C#CCCCCCCN4CCN(C5CCN(c6ncc(C(=O)Nc7ccc(OC(F)(F)Cl)cc7)cc6-c6ccn[nH]6)CC5)CC4)cccc3C2=O)C(=O)N1` (centres undefined) were, in that order, 38.4%, 29.9% and 124 nM.
The like results for `O=C1CCC(N2Cc3c(SCCCCNc4ncc(C(=O)Nc5ccc(OC(F)(F)Cl)cc5)cc4-c4ccn[nH]4)cccc3C2=O)C(=O)N1` (centres undefined) were, in that order, -3.56%, -9.23% and 928 nM.
Compound `O=C1CCC(N2Cc3c(OCCCC(=O)N4CCN(c5ncc(C(=O)Nc6ccc(OC(F)(F)Cl)cc6)cc5-c5ccn[nH]5)CC4)cccc3C2=O)C(=O)N1` (centres undefined) gave a half-maximal inhibitory concentration (IC50) in the assay on K562 of 2120 nM. The Activity in assay [1] was -12.3%.
As for `O=C1CCC(N2Cc3c(SCCCCCCNc4ncc(C(=O)Nc5ccc(OC(F)(F)Cl)cc5)cc4-c4ccn[nH]4)cccc3C2=O)C(=O)N1` (centres undefined), the values for the Activity in assay [2] and in assay [3] were -5.46% and -8.74%, respectively. Besides, it took 1960 nM to reach half-maximal inhibition with K562 (IC50).
In the case of `O=C1CCC(N2C(=O)c3cccc(OCCCC(=O)N4CCN(c5ncc(C(=O)Nc6ccc(OC(F)(F)Cl)cc6)cc5-c5ccn[nH]5)CC4)c3C2=O)C(=O)N1` (centres undefined), the IC50 with K562 came out at 1120 nM. Moreover, the Activity in assay [1] was -1.35%.
Regarding `Nc1cccc2c1C(=O)N(C1CCC(=O)NC1=O)C2=O` (centres undefined) [POMALIDOMIDE], in the assay on K562, the IC50 was > 10000 nM.
`O=C1CCC(N2Cc3c(SCCCCNC4CCN(c5ncc(C(=O)Nc6ccc(OC(F)(F)Cl)cc6)cc5-c5ccn[nH]5)CC4)cccc3C2=O)C(=O)N1` (centres undefined): the results for the Activity in assay [2] and in assay [3] were 5.76% and 41.6%, respectively. The compound further had an IC50 with K562 of 322 nM.
Turning to `O=C1CCC(N2C(=O)c3cccc(NCCCCCCC(=O)N4CCN(c5ncc(C(=O)Nc6ccc(OC(F)(F)Cl)cc6)cc5-c5ccn[nH]5)CC4)c3C2=O)C(=O)N1` (centres undefined), in the assay on K562, the IC50 was determined as 380 nM. For the same compound, the Activity in assay [1] came out at 1%.
With `O=C1CCC(N2Cc3c(SCCCCCCNC4CCN(c5ncc(C(=O)Nc6ccc(OC(F)(F)Cl)cc6)cc5-c5ccn[nH]5)CC4)cccc3C2=O)C(=O)N1` (centres undefined), the Activity worked out at 29.4% in assay [2] and 70.9% in assay [3]. The compound also had an IC50 with K562 of 228 nM.
The like results for `O=C1CCC(N2Cc3c(SCCCCCN4CCN(C5CCN(c6ncc(C(=O)Nc7ccc(OC(F)(F)Cl)cc7)cc6-c6ccn[nH]6)CC5)CC4)cccc3C2=O)C(=O)N1` (centres undefined) were, in that order, 24.3%, 37.1% and 23.1 nM.
For `O=C1CCC(N2Cc3c(OCCCCN4CCN(c5ncc(C(=O)Nc6ccc(OC(F)(F)Cl)cc6)cc5-c5ccn[nH]5)CC4)cccc3C2=O)C(=O)N1` (centres undefined), in that order: 30.6%, 89.2% and 67.2 nM.
For `O=C1CCC(N2C(=O)c3cccc(SCCCCN4CCN(C5CCN(c6ncc(C(=O)Nc7ccc(OC(F)(F)Cl)cc7)cc6-c6ccn[nH]6)CC5)CC4)c3C2=O)C(=O)N1` (centres undefined), in that order: 38.2%, 70.9% and 170 nM.
Take `O=C1CCC(N2Cc3c(SCCCC(=O)N4CCN(c5ncc(C(=O)Nc6ccc(OC(F)(F)Cl)cc6)cc5-c5ccn[nH]5)CC4)cccc3C2=O)C(=O)N1` (centres undefined): the IC50 in the assay on K562 was determined as 106 nM. Also, the Activity in assay [1] was 35.1%.
Regarding `O=C1CCC(N2Cc3c(SCCCCCCN4CCN(c5ncc(C(=O)Nc6ccc(OC(F)(F)Cl)cc6)cc5-c5ccn[nH]5)CC4)cccc3C2=O)C(=O)N1` (centres undefined), the results for the Activity in assay [2] and in assay [3] were 24.6% and 40.8%, respectively. Half-maximal inhibition in the assay with K562 (IC50) was put at 292 nM.
As for `O=C1CCC(N2C(=O)c3cccc(NCC(=O)N4CCN(c5ncc(C(=O)Nc6ccc(OC(F)(F)Cl)cc6)cc5-c5ccn[nH]5)CC4)c3C2=O)C(=O)N1` (centres undefined), the IC50 in the assay on K562 came to 572 nM. In assay [1], the Activity was 1.82%.
Consider `O=C1CCC(N2Cc3c(SCCCN4CCN(c5ncc(C(=O)Nc6ccc(OC(F)(F)Cl)cc6)cc5-c5ccn[nH]5)CC4)cccc3C2=O)C(=O)N1` (centres undefined), for which the results for the Activity in assay [2] and in assay [3] were 48.4% and 40%, respectively. In the assay with K562, this compound had an IC50 of 137 nM.
